According to patent US11667678B2, “Peptides for the treatment of COVID-19” (priority 2019, dated 2023):
Peptide text beside a SMILES is read from it.

How the values were obtained:
control mice = conditions: mouse, in vivo
[1] = biological target: ACE2:SARS-CoV-2 spike S1 binding (UniProt P0DTC2+Q9BYF1)
[2] = test system: human A549 lung cells stimulated with recombinant SARS-CoV-2 spike S1; conditions: 'See herein and Paidi et al.'; cited from earlier work
[3] = test system: SARS-CoV-2 spike S1-intoxicated C57/BL6 mice; conditions: mouse, in vivo
[4] = test system: human A549 lung cells stimulated with HIV-1 Tat; type: cell-based
[5] = test system: SARS-CoV-2 spike S1-intoxicated C57/BL6 mice; conditions: mouse, in vivo; remark: listed apart in the source
[6] = test system: human A549 lung cells stimulated with poly IC; type: cell-based
[7] = test system: human A549 lung cells stimulated with bacterial flagellin; type: cell-based
[8] = test system: human A549 lung cells stimulated with recombinant SARS-CoV-2 spike S1; type: cell-based

Compound	drug-related side effect (hair loss, appetite loss, weight loss, untoward infection and irritation) (control mice)	SARS-CoV-2 spike S1 binding to immobilized ACE2 [1]	SARS-CoV-2 spike S1-induced expression of proinflammatory cytokines [2]	arrhythmias (ECG heart functions) [3]	fever (body temperature) [3]	infiltration of neutrophils into the lungs [3]	level of proinflammatory molecules in lungs and serum [3]	locomotor activities [3]	serum level of C-reactive protein (CRP) [3]	expression of IL-6 and IL-1β induced by HIV-1 Tat [4]	body temperature (fever) [5]	level of IL-6 mRNA and protein as well as IL-1β mRNA in lungs [5]	level of serum IL-6 [5]	lung neutrophil infiltration [5]	expression of IL-6 and IL-1β induced by poly IC [6]	expression of IL-6 and IL-1β induced by flagellin [7]	SARS-CoV-2 spike S1-mediated induction of IL-6 and IL-1β (mRNA) [8]
CC(C)[C@H](NC(=O)CNC(=O)[C@H](CC(N)=O)NC(=O)[C@@H](N)[C@@H](C)O)C(=O)NCC(=O)N[C@@H](Cc1ccc(O)cc1)C(=O)O [wtAIDS, TNGVGY] (H-TNGVGY-OH)	did not notice any drug-related side effect																
EDLFYQ (SPIDAR peptide) [wtSPIDAR]		Inhibition	markedly suppresses	reduced arrhythmias	reduced fever	attenuated	decreased	improved locomotor activities	normalized								
TGGVGD (mAIDS peptide)		no such inhibition								had no effect	no such inhibitory effect	no such inhibitory effect	no such inhibitory effect	no such inhibitory effect	had no effect	had no effect	had no effect
